Patent US20190233796A1, “Generation of Inner Ear Cells” (Massachusetts Eye & Ear Infirmary, priority 2006, published 2019)

Test system: Math1-estrogen receptor (ER) fusion protein
Experiment: Tamoxifen-inducible Math1-estrogen receptor (ER) fusion construct in transfected cells
Assay type: cell-based
Details: addition of tamoxifen to the transfected cells
Excerpt: This Example describes a system in which administration of tamoxifen, a […], induces expression of Math1. A Math1-estrogen receptor (ER) fusion protein, where the ER has been mutated so that it selectively binds to tamoxifen rather than estrogen, is constitutively expressed. In the absence of tamoxifen, the Math1-ER construct remains quiescent within the cytosol where it is inactivated by heat shock proteins. […] The sequence of Math1 is given above.

SMILES: CC/C(=C(\c1ccccc1)c1ccc(OCCN(C)C)cc1)c1ccccc1 [tamoxifen]
- localization of the Math1-ER construct to the nucleus: dose-dependent localization of the Math1-ER construct to the nucleus
